Source: PMC6522510 (Nature Communications, 2019)
Read-outs that look alike come from different tables or passages of the source. Square brackets hold non-standard residues; d marks the D form. Peptide text beside a SMILES is read from it. * marks the point of attachment. Sta = CC(C)C[C@H](N)[C@@H](O)CC(=O)O; Isovaleryl = CC(C)CC(=O)*

Assays:
Set-up in all cases: species or system AML cell lines (8); Primary HTS, single concentration about 10 uM, Cell Titer Glo viability; log10 luminescence, per cent inhibition relative to cycloheximide control
Details in all cases: 72 h, relative to cycloheximide control, log10 luminescence, inhibitor
MOLM-13 = system: MOLM-13
CMK = system: CMK
CHRF288-11 = system: CHRF288-11
ML-2 = system: ML-2
CMS = system: CMS
M07e = system: M07e
MV4-11 = system: MV4-11
U937 = system: U937

With `C[C@]12CCC(=O)C=C1CC[C@@H]1[C@@H]2C(=O)C[C@@]2(C)[C@H]1CC[C@]2(O)C(=O)CO` [SJ000287023-7, CORTISONE] as the compound, how does the MOLM-13 %inh (MOLM-13) read?
The MOLM-13 %inh was -2.413%.

What about the CMK %inh (CMK) of the same compound?
Its CMK %inh is -2.132%.

And the CHRF288-11 %inh (CHRF288-11)?
Its CHRF288-11 %inh is 8.551%.

And the ML-2 %inh (ML-2)?
Its ML-2 %inh is -0.1775%.

What about the CMS %inh (CMS) of the same compound?
The CMS %inh was -0.2521%.

What about the M07e %inh (M07e) of the same compound?
Its M07e %inh is -0.4313%.

And the MV4-11 %inh (MV4-11)?
Its MV4-11 %inh is -0.1807%.

And the U937 %inh (U937)?
The U937 %inh was -1.735%.

What does the source list for `CCOC(=O)[C@H](CCc1ccccc1)N[C@@H](C)C(=O)N1[C@H](C(=O)O)C[C@@H]2CCC[C@@H]21` [SJ000287048-3]?
MOLM-13 %inh (MOLM-13): -1.2%; CMK %inh (CMK): 1.362%; CHRF288-11 %inh (CHRF288-11): -4.815%; ML-2 %inh (ML-2): -0.556%; CMS %inh (CMS): -0.1854%; M07e %inh (M07e): -2.965%; MV4-11 %inh (MV4-11): 3.659%; U937 %inh (U937): 1.846%

How did the MOLM-13 %inh (MOLM-13) turn out when `C[C@@H]1C[C@H]2[C@@H]3C[C@H](F)C4=CC(=O)C=C[C@]4(C)[C@@]3(F)[C@@H](O)C[C@]2(C)[C@@]1(O)C(=O)CO` [SJ000287102-3, FLUMETHASONE] was run?
Its MOLM-13 %inh is 0.6987%.

What about the CMK %inh (CMK) of the same compound?
Its CMK %inh is 4.189%.

And the CHRF288-11 %inh (CHRF288-11)?
Its CHRF288-11 %inh is 4.435%.

What about the ML-2 %inh (ML-2) of the same compound?
Its ML-2 %inh is 1.1%.

And the CMS %inh (CMS)?
Its CMS %inh is 2.822%.

What about the M07e %inh (M07e) of the same compound?
Its M07e %inh is -0.252%.

And the MV4-11 %inh (MV4-11)?
The MV4-11 %inh was -0.9154%.

What about the U937 %inh (U937) of the same compound?
Its U937 %inh is 4.356%.

What does the source list for `CC1(C)O[C@@H]2C[C@H]3[C@@H]4C[C@H](F)C5=CC(=O)CC[C@]5(C)[C@H]4[C@@H](O)C[C@]3(C)[C@]2(C(=O)CO)O1` [SJ000287138-3, FLURANDRENOLIDE]?
MOLM-13 %inh (MOLM-13): -1.421%; CMK %inh (CMK): -0.8734%; CHRF288-11 %inh (CHRF288-11): 7.802%; ML-2 %inh (ML-2): -1.728%; CMS %inh (CMS): 0.1237%; M07e %inh (M07e): -0.6056%; MV4-11 %inh (MV4-11): -1.501%; U937 %inh (U937): 5.849%

Which results are given for `CC(C)(C)c1ccc(C(O)CCCN2CCC(C(O)(c3ccccc3)c3ccccc3)CC2)cc1` (stereo not drawn) [SJ000287189-5, TERFENADINE]?
MOLM-13 %inh (MOLM-13): -1.727%; CMK %inh (CMK): -4.344%; CHRF288-11 %inh (CHRF288-11): 1.988%; ML-2 %inh (ML-2): 1.525%; CMS %inh (CMS): -3.743%; M07e %inh (M07e): 132.8%; MV4-11 %inh (MV4-11): 1.084%; U937 %inh (U937): 0.7714%

For `NCC1(CC(=O)O)CCCCC1` [SJ000287210-5, GABAPENTIN], which MOLM-13 %inh (MOLM-13) is on record?
The MOLM-13 %inh was 0.8376%.

What about the CMK %inh (CMK) of the same compound?
The CMK %inh was 0.3533%.

What about the CHRF288-11 %inh (CHRF288-11) of the same compound?
Its CHRF288-11 %inh is -2.43%.

And the ML-2 %inh (ML-2)?
The ML-2 %inh was -3.023%.

And the CMS %inh (CMS)?
The CMS %inh was -2.432%.

And the M07e %inh (M07e)?
The M07e %inh was -2.786%.

What about the MV4-11 %inh (MV4-11) of the same compound?
The MV4-11 %inh was 5.813%.

What about the U937 %inh (U937) of the same compound?
Its U937 %inh is -1.755%.

Which results are given for `CC(C)CC(=O)N[C@H](C(=O)N[C@H](C(=O)N[C@@H](CC(C)C)[C@@H](O)CC(=O)N[C@@H](C)C(=O)N[C@@H](CC(C)C)[C@@H](O)CC(=O)O)C(C)C)C(C)C` [SJ000287258-3, PEPSTATIN A] (Isovaleryl-VV[Sta]A[Sta]-OH)?
MOLM-13 %inh (MOLM-13; MOLM-13 %inh, 10 µM): -0.1246%; CMK %inh (CMK; CMK %inh, 10 µM): -4.878%; CHRF288-11 %inh (CHRF288-11; CHRF288-11 %inh, 10 µM): 20.49%; ML-2 %inh (ML-2; ML-2 %inh, 10 µM): 1.096%; CMS %inh (CMS; CMS %inh, 10 µM): 1.08%; M07e %inh (M07e; M07e %inh, 10 µM): 1.266%; MV4-11 %inh (MV4-11; MV4-11 %inh, 10 µM): 0.8934%; U937 %inh (U937; U937 %inh, 10 µM): 4.393%

For `CC(C)CC(=O)N[C@H](C(=O)N[C@H](C(=O)N[C@@H](CC(C)C)[C@@H](O)CC(=O)N[C@@H](C)C(=O)N[C@@H](CC(C)C)[C@@H](O)CC(=O)O)C(C)C)C(C)C` [SJ000287258-4, PEPSTATIN A] (Isovaleryl-VV[Sta]A[Sta]-OH), which MOLM-13 %inh (MOLM-13; MOLM-13 %inh, 10 µM) is on record?
Its MOLM-13 %inh is 0.9923%.

What about the CMK %inh (CMK; CMK %inh, 10 µM) of the same compound?
The CMK %inh was -1.598%.

What about the CHRF288-11 %inh (CHRF288-11; CHRF288-11 %inh, 10 µM) of the same compound?
Its CHRF288-11 %inh is -1.709%.

What about the ML-2 %inh (ML-2; ML-2 %inh, 10 µM) of the same compound?
The ML-2 %inh was -2.254%.

And the CMS %inh (CMS; CMS %inh, 10 µM)?
Its CMS %inh is 2.288%.

And the M07e %inh (M07e; M07e %inh, 10 µM)?
The M07e %inh was -0.4461%.

And the MV4-11 %inh (MV4-11; MV4-11 %inh, 10 µM)?
Its MV4-11 %inh is 2.97%.

What about the U937 %inh (U937; U937 %inh, 10 µM) of the same compound?
The U937 %inh was -1.362%.

Which MOLM-13 %inh (MOLM-13) does the source give for `C=CC1=C(C(=O)O)N2C(=O)[C@@H](NC(=O)/C(=N\OCC(=O)O)c3csc(N)n3)[C@H]2SC1` [SJ000287284-2, CEFIXIME] here?
The MOLM-13 %inh was 0.1743%.

What about the CMK %inh (CMK) of the same compound?
Its CMK %inh is 0.8991%.

And the CHRF288-11 %inh (CHRF288-11)?
The CHRF288-11 %inh was -7.075%.

What about the ML-2 %inh (ML-2) of the same compound?
Its ML-2 %inh is -0.1874%.

What about the CMS %inh (CMS) of the same compound?
The CMS %inh was -2.931%.

And the M07e %inh (M07e)?
Its M07e %inh is -4.21%.

And the MV4-11 %inh (MV4-11)?
The MV4-11 %inh was -3.36%.

What about the U937 %inh (U937) of the same compound?
The U937 %inh was 0.1666%.
